# Experimental data reported in publication doi:10.1101/2020.04.09.034306v1 (biorxiv, 2020).
# Target: T1, ACE (angiotensin-I converting enzyme, from rabbit lung) (Oryctolagus cuniculus, UniProt P12822)
# T1 sequence (P12822 34-1310): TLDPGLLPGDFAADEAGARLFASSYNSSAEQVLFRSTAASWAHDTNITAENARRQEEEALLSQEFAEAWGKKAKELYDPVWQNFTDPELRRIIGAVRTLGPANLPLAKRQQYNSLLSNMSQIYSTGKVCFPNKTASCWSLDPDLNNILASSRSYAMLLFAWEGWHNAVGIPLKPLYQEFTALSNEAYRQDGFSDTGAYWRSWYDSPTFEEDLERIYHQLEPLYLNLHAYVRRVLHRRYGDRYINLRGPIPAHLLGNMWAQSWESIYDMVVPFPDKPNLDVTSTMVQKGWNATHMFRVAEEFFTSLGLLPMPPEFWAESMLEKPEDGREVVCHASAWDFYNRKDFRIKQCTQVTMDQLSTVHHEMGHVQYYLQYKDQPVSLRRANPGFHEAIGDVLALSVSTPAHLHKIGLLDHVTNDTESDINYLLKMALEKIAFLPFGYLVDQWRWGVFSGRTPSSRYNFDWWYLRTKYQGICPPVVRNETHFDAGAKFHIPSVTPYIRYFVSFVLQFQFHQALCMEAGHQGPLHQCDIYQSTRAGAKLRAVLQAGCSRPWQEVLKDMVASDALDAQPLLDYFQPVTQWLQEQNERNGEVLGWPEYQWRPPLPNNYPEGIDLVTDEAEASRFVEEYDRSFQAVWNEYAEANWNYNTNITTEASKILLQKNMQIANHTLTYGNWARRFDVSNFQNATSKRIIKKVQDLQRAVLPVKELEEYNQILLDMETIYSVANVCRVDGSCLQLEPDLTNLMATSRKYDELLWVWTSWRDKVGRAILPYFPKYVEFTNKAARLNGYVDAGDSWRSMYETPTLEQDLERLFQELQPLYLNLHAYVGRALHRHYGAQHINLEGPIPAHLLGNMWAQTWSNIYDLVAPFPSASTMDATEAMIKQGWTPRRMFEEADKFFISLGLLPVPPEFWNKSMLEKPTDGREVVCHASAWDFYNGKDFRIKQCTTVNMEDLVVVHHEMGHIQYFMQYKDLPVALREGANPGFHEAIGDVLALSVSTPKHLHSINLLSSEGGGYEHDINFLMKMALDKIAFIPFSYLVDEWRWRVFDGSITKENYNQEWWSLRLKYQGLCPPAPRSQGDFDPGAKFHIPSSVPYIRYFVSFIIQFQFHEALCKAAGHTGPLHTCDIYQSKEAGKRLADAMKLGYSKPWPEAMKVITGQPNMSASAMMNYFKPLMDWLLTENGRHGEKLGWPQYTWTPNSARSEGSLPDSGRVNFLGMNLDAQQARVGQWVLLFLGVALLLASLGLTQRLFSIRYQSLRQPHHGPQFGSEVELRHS
# Assay: hippuric acid release from HHL, cyanuric chloride colour at […] nm
# Format: biochemical
compound,measurement,value
NCCCC[C@H](N[C@@H](CCc1ccccc1)C(=O)O)C(=O)N1CCC[C@H]1C(=O)O [Lisinopril],IC50,0.764 µM
